According to patent publication US12692254B2, “Benzimidazole inhibitors of PAD enzymes” (BRISTOL-MYERS SQUIBB COMPANY, priority 2018, dated 2026):

Target: human PAD4 (hPAD4) (Homo sapiens, UniProt Q9UM07)
Assay: RFMS human PAD4 functional assay (rapid-fire mass spectrum)
Format: biochemical
Details: 5 nM hPAD4 enzyme, 250 μM BAEE, 50 μM Calcium; 30 min preincubation, 90 min reaction at 37° C.
Method in brief: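 PAD4 (10 nM) preincubated 30 min with compound (top final 50 μM), then BAEE substrate added in pH 7.5 HEPES buffer with DTT, 50 μM calcium, TPEN; 90 min at 37° C. After TCA quench, citrulline derivatized with phenyl glyoxal (4 mM final, 30 min, 37° C) and quantified by RapidFire MS against internal standard.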

Sequence of human PAD4 (hPAD4) (Q9UM07 whole entry): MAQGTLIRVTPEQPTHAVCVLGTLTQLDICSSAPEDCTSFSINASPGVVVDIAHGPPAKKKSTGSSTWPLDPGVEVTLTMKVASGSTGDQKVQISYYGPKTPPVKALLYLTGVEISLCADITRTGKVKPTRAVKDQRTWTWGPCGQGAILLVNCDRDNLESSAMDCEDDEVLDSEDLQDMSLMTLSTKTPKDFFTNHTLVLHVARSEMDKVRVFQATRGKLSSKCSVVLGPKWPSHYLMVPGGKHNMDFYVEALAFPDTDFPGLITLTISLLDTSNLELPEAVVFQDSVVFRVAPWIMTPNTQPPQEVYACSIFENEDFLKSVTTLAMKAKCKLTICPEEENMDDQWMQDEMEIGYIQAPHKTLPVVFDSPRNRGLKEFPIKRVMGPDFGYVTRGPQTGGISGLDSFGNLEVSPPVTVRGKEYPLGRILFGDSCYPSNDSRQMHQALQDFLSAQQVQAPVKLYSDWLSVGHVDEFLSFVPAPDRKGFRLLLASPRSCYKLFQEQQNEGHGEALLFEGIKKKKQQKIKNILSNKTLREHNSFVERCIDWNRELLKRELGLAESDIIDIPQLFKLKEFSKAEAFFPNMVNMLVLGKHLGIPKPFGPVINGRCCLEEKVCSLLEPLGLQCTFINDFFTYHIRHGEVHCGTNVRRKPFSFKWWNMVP

| Structure (SMILES) | IC50 [nM] |
| --- | --- |
| COc1cc(C(=O)N2C[C@H]3CC[C@@H]2[C@@H]3N)cc2nc(-c3cc4cc(Cl)ccc4n3C)n(CC3CN(c4cncc(C#N)n4)C3)c12 [Example 59, 6-[3-({5-[(1R,4R,7R)-7-amino-2-azabicyclo[2.2.1]heptane-2-carbonyl]-2-(5-chloro-1-methyl-1H-indol-2-yl)-7-methoxy-1H-1,3-benzodiazol-1-yl}methyl)azetidin-1-yl]pyrazine-2-carbonitrile] | 171 |
| COc1cc(C(=O)N2C[C@H]3CC[C@@H]2[C@@H]3N)cc2nc(-c3cc4cccnc4n3C)n(CC3CN(c4cncnc4C#N)C3)c12 [Example 60, 5-[3-({5-[(1R,4R,7R)-7-amino-2-azabicyclo[2.2.1]heptane-2-carbonyl]-7-methoxy-2-{1-methyl-1H-pyrrolo[2,3-b]pyridin-2-yl}-1H-1,3-benzodiazol-1-yl}methyl)azetidin-1-yl]pyrimidine-4-carbonitrile] | 171 |
| COc1cc(C(=O)N2C[C@H]3CC[C@@H]2[C@@H]3N)cc2nc(-c3cc4cc(Cl)ccc4n3C)n(CC3CN(c4ccnc(C)n4)C3)c12 [Example 61, (1R,4R,7R)-2-[2-(5-chloro-1-methyl-1H-indol-2-yl)-7-methoxy-1-{[1-(2-methylpyrimidin-4-yl)azetidin-3-yl]methyl}-1H-1,3-benzodiazole-5-carbonyl]-2-azabicyclo[2.2.1]heptan-7-amine] | 187 |
| COc1cc(C(=O)N2C[C@H]3CC[C@@H]2[C@@H]3N)cc2nc(-c3cc4cc(Cl)ccc4n3C)n(CC3CN(c4ncccn4)C3)c12 [Example 62, (1R,4R,7R)-2-[2-(5-chloro-1-methyl-1H-indol-2-yl)-7-methoxy-1-{[1-(pyrimidin-2-yl)azetidin-3-yl]methyl}-1H-1,3-benzodiazole-5-carbonyl]-2-azabicyclo[2.2.1]heptan-7-amine] | 192 |
| COc1cc(C(=O)N2C[C@H]3CC[C@@H]2[C@@H]3N)cc2nc(-c3cc4cccnc4n3CC3CC3)n(CC3CN(c4cncc(C)n4)C3)c12 [Example 63, (1R,4R,7R)-2-{2-[1-(cyclopropylmethyl)-1H-pyrrolo[2,3-b]pyridin-2-yl]-7-methoxy-1-{[1-(6-methylpyrazin-2-yl)azetidin-3-yl]methyl}-1H-1,3-benzodiazole-5-carbonyl}-2-azabicyclo[2.2.1]heptan-7-amine] | 199 |
| COc1cc(C(=O)N2C[C@H]3CC[C@@H]2[C@@H]3N)cc2nc(-c3cc4ccccc4n3CC3CC3)n(CC3CN(c4nccnc4C#N)C3)c12 [Example 64, 3-[3-({5-[(1R,4R,7R)-7-amino-2-azabicyclo[2.2.1]heptane-2-carbonyl]-2-[1-(cyclopropylmethyl)-1H-indol-2-yl]-7-methoxy-1H-1,3-benzodiazol-1-yl}methyl)azetidin-1-yl]pyrazine-2-carbonitrile] | 23 |
| COc1cc(C(=O)N2C[C@H]3CC[C@@H]2[C@@H]3N)cc2nc(-c3cc4ccccc4n3CC3CC3)n(CC3CN(c4cncc(C#N)n4)C3)c12 [Example 65, 6-[3-({5-[(1R,4R,7R)-7-amino-2-azabicyclo[2.2.1]heptane-2-carbonyl]-2-[1-(cyclopropylmethyl)-1H-indol-2-yl]-7-methoxy-1H-1,3-benzodiazol-1-yl}methyl)azetidin-1-yl]pyrazine-2-carbonitrile] | 28 |
| COc1cc(C(=O)N2C[C@H]3CC[C@@H]2[C@@H]3N)cc2nc(-c3cc4ccccc4n3CC3CC3)n(CC3CN(c4ccnc(C)n4)C3)c12 [Example 66, (1R,4R,7R)-2-{2-[1-(cyclopropylmethyl)-1H-indol-2-yl]-7-methoxy-1-{[1-(2-methylpyrimidin-4-yl)azetidin-3-yl]methyl}-1H-1,3-benzodiazole-5-carbonyl}-2-azabicyclo[2.2.1]heptan-7-amine] | 39 |
| COc1cc(C(=O)N2C[C@H]3CC[C@@H]2[C@@H]3N)cc2nc(-c3cc4ccccc4n3CC3CC3)n(CC3CN(c4cncc(C#N)c4)C3)c12 [Example 67, 5-[3-({5-[(1R,4R,7R)-7-amino-2-azabicyclo[2.2.1]heptane-2-carbonyl]-2-[1-(cyclopropylmethyl)-1H-indol-2-yl]-7-methoxy-1H-1,3-benzodiazol-1-yl}methyl)azetidin-1-yl]pyridine-3-carbonitrile] | 40 |
| COc1cc(C(=O)N2C[C@H]3CC[C@@H]2[C@@H]3N)cc2nc(-c3cc4cccnc4n3CC3CC3)n(C3CN(c4ccnc(C#N)n4)C3)c12 [Example 68, 4-(3-{5-[(1R,4R,7R)-7-amino-2-azabicyclo[2.2.1]heptane-2-carbonyl]-2-[1-(cyclopropylmethyl)-1H-pyrrolo[2,3-b]pyridin-2-yl]-7-methoxy-1H-1,3-benzodiazol-1-yl}azetidin-1-yl)pyrimidine-2-carbonitrile] | 124 |
| COc1cc(C(=O)N2C[C@H]3CC[C@@H]2[C@@H]3N)cc2nc(-c3cc4cccnc4n3CC3CC3)n(C3CN(c4cncc(C#N)n4)C3)c12 [Example 69, 6-(3-{5-[(1R,4R,7R)-7-amino-2-azabicyclo[2.2.1]heptane-2-carbonyl]-2-[1-(cyclopropylmethyl)-1H-pyrrolo[2,3-b]pyridin-2-yl]-7-methoxy-1H-1,3-benzodiazol-1-yl}azetidin-1-yl)pyrazine-2-carbonitrile] | 58 |
| COc1cc(C(=O)N2C[C@H]3CC[C@@H]2[C@@H]3N)cc2nc(-c3cc4cccnc4n3CC3CC3)n(C3CN(c4ccnc(C5CC5)n4)C3)c12 [Example 70, (1R,4R,7R)-2-{2-[1-(cyclopropylmethyl)-1H-pyrrolo[2,3-b]pyridin-2-yl]-1-[1-(2-cyclopropylpyrimidin-4-yl)azetidin-3-yl]-7-methoxy-1H-1,3-benzodiazole-5-carbonyl}-2-azabicyclo[2.2.1]heptan-7-amine] | 87 |
| COc1nccc(N2CC(n3c(-c4cc5cccnc5n4CC4CC4)nc4cc(C(=O)N5C[C@H]6CC[C@@H]5[C@@H]6N)cc(OC)c43)C2)n1 [Example 71, (1R,4R,7R)-2-{2-[1-(cyclopropylmethyl)-1H-pyrrolo[2,3-b]pyridin-2-yl]-7-methoxy-1-[1-(2-methoxypyrimidin-4-yl)azetidin-3-yl]-1H-1,3-benzodiazole-5-carbonyl}-2-azabicyclo[2.2.1]heptan-7-amine] | 111 |
| COc1cc(C(=O)N2C[C@H]3CC[C@@H]2[C@@H]3N)cc2nc(-c3cc4cccnc4n3CC3CC3)n(C3CN(c4nccc(C(=O)O)n4)C3)c12 [Example 72, 2-(3-{5-[(1R,4R,7R)-7-amino-2-azabicyclo[2.2.1]heptane-2-carbonyl]-2-[1-(cyclopropylmethyl)-1H-pyrrolo[2,3-b]pyridin-2-yl]-7-methoxy-1H-1,3-benzodiazol-1-yl}azetidin-1-yl)pyrimidine-4-carboxylic acid] | 113 |
| COc1cc(C(=O)N2C[C@H]3CC[C@@H]2[C@@H]3N)cc2nc(-c3cc4cccnc4n3CC3CC3)n(C3CN(c4cncc(C#N)c4)C3)c12 [Example 73, 5-(3-{5-[(1R,4R,7R)-7-amino-2-azabicyclo[2.2.1]heptane-2-carbonyl]-2-[1-(cyclopropylmethyl)-1H-pyrrolo[2,3-b]pyridin-2-yl]-7-methoxy-1H-1,3-benzodiazol-1-yl}azetidin-1-yl)pyridine-3-carbonitrile] | 149 |
| COc1cc(C(=O)N2C[C@H]3CC[C@@H]2[C@@H]3N)cc2nc(-c3cc4cccnc4n3CC3CC3)n(CC3CN(c4cnccn4)C3)c12 [Example 74, (1R,4R,7R)-2-{2-[1-(cyclopropylmethyl)-1H-pyrrolo[2,3-b]pyridin-2-yl]-7-methoxy-1-{[1-(pyrazin-2-yl)azetidin-3-yl]methyl}-1H-1,3-benzodiazole-5-carbonyl}-2-azabicyclo[2.2.1]heptan-7-amine] | 210 |
| COc1cc(C(=O)N2C[C@H]3CC[C@@H]2[C@@H]3N)cc2nc(-c3cc4cccnc4n3CC3CC3)n(C3CN(c4cnc(C#N)nc4)C3)c12 [Example 75, 5-(3-{5-[(1R,4R,7R)-7-amino-2-azabicyclo[2.2.1]heptane-2-carbonyl]-2-[1-(cyclopropylmethyl)-1H-pyrrolo[2,3-b]pyridin-2-yl]-7-methoxy-1H-1,3-benzodiazol-1-yl}azetidin-1-yl)pyrimidine-2-carbonitrile] | 216 |
| COc1cc(C(=O)N2C[C@H]3CC[C@@H]2[C@@H]3N)cc2nc(-c3cc4cccnc4n3CC3CC3)n(C3CN(c4cncnc4)C3)c12 [Example 76, (1R,4R,7R)-2-{2-[1-(cyclopropylmethyl)-1H-pyrrolo[2,3-b]pyridin-2-yl]-7-methoxy-1-[1-(pyrimidin-5-yl)azetidin-3-yl]-1H-1,3-benzodiazole-5-carbonyl}-2-azabicyclo[2.2.1]heptan-7-amine] | 292 |
| COc1cc(C(=O)N2C[C@H]3CC[C@@H]2[C@@H]3N)cc2nc(-c3cc4cccnc4n3CC3CC3)n(C3CN(c4ccnc(C)n4)C3)c12 [Example 77, (1R,4R,7R)-2-{2-[1-(cyclopropylmethyl)-1H-pyrrolo[2,3-b]pyridin-2-yl]-7-methoxy-1-[1-(2-methylpyrimidin-4-yl)azetidin-3-yl]-1H-1,3-benzodiazole-5-carbonyl}-2-azabicyclo[2.2.1]heptan-7-amine] | 307 |
| COc1cc(C(=O)N2C[C@H]3CC[C@@H]2[C@@H]3N)cc2nc(-c3cc4cccnc4n3C)n(CC3CN(c4cncnc4C#N)C3)c12 [Example 78, 5-[3-({5-[(1R,4R,7R)-7-amino-2-azabicyclo[2.2.1]heptane-2-carbonyl]-7-methoxy-2-{1-methyl-1H-pyrrolo[2,3-b]pyridin-2-yl}-1H-1,3-benzodiazol-1-yl}methyl)azetidin-1-yl]pyrimidine-4-carbonitrile] | 373 |
| COc1cc(C(=O)N2C[C@H]3CC[C@@H]2[C@@H]3N)cc2nc(-c3cc4cccnc4n3CC3CC3)n(CC3CN(c4nc(O)ncc4C#N)C3)c12 [Example 79, 4-[3-({5-[(1R,4R,7R)-7-amino-2-azabicyclo[2.2.1]heptane-2-carbonyl]-2-[1-(cyclopropylmethyl)-1H-pyrrolo[2,3-b]pyridin-2-yl]-7-methoxy-1H-1,3-benzodiazol-1-yl}methyl)azetidin-1-yl]-2-hydroxypyrimidine-5-carbonitrile] | 400 |
